Results reported in publication PMC5462828 (Scientific Reports, 2017).
Read-outs that look alike come from different tables or passages of the source.

Assays:
[1] = tested on: ML290-mediated cGMP accumulation; experiment: Effect of signalling pathway inhibitors on ML290-mediated cGMP accumulation in human primary vascular cells; type: cell-based; settings: for Emax: Homo sapiens, read-out: ML290-mediated cGMP accumulation (maximum response), ML290 alone
Procedure: cAMP and cGMP accumulation was determined as previously described, [16]. Briefly, HEK293 cells were plated in 96-well plates (5 × 10^4 cells/well) and human primary cells were plated into 24-well plates (1 × 10^5 cells/well) and grown overnight to achieve a confluent monolayer. Prior to stimulation, HEK cells were serum-starved in DMEM containing 0.5% FBS v/v and primary cells were serum-starved in M199 medium for 4–6 hours. […] Levels of cAMP and cGMP were detected according to the manufacturer’s instructions (Perkin-Elmer, Australia).

[2] = set-up: method as in PMID 23764525; settings: cited from earlier work
[3] = tested on: THP-1 cells; set-up: method as in PMID 23764525; settings: cited from earlier work
[4] = tested on: RXFP2; settings: cited from earlier work
[5] = molecular target: T1, RXFP1 (Homo sapiens, UniProt Q9HBX9); experiment: 125I-H2 relaxin radioligand binding in HEK-RXFP1 cells; set-up: expressed in transfected cells; host or cells: HEK293T / HEK293 cells stably expressing RXFP1 (HEK-RXFP1)
T1 sequence (Q9HBX9 1-757): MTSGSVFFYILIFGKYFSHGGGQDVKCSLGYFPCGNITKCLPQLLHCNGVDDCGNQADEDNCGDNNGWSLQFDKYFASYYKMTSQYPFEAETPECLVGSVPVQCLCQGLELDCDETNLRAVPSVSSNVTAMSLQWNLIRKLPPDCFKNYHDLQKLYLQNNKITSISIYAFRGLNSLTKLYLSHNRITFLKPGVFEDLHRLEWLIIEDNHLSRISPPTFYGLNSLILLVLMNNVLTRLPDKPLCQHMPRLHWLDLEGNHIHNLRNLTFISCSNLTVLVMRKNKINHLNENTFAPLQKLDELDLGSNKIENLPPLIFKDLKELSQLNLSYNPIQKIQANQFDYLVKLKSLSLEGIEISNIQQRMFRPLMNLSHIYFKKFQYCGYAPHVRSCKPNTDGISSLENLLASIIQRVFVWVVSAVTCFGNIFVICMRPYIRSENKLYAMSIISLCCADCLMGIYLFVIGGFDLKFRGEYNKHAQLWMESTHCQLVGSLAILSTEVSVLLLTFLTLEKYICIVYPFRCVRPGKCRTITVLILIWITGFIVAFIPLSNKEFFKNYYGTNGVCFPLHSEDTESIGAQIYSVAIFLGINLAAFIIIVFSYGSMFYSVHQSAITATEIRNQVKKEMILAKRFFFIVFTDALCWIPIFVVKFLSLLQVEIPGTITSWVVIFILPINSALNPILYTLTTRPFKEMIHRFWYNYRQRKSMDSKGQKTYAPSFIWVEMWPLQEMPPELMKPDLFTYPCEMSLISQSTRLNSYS
Procedure: Competition radioligand binding studies were performed in HEK-RXFP1 cells as described previously. […] After 90 min incubation at room temperature, the reaction was terminated with the removal of medium and washing with cold PBS. Cells were digested with 0.1 M NaOH and radioactivity counted on the γ-counter.

[6] = tested on: RXFP1; experiment: cGMP accumulation in human primary vascular cells and cardiac fibroblasts; type: cell-based; settings: HUAEC, cells that do not express cell surface RXFP1; 30 min
Procedure: (§1) cAMP and cGMP accumulation was determined as previously described, [16]. Briefly, HEK293 cells were plated in 96-well plates (5 × 10^4 cells/well) and human primary cells were plated into 24-well plates (1 × 10^5 cells/well) and grown overnight to achieve a confluent monolayer. Prior to stimulation, HEK cells were serum-starved in DMEM containing 0.5% FBS v/v and primary cells were serum-starved in M199 medium for 4–6 hours. Where appropriate, cells were pre-incubated with mSIRK (5 μM, 30 min), mSIRK control peptide L9A (5 μM, 30 min), gallein (100 μM, 30 min), Wortmannin (100 nM, 30 min), NF023 (10 μM, 30 min) and NF449 (10 μM, 30 min). Levels of cAMP and cGMP were detected according to the manufacturer’s instructions (Perkin-Elmer, Australia).

[7] = molecular target: T1, RXFP1; experiment: as above; type: cell-based; settings: for cGMP accumulation, maximum: DEA 10 μM, 5 min
Procedure: as §1

[8] = molecular target: T1, RXFP1; experiment: ERK1/2 phosphorylation (Surefire) in HEK-RXFP1 cells; type: cell-based; set-up: expressed in transfected cells; host or cells: HEK293T / HEK293 cells stably expressing RXFP1 (HEK-RXFP1); settings: ML290 10 μM, 10 min pretreatment
Procedure: p-ERK1/2, p-p38MAPK and p-JNK1/2 was measured using the Surefire ERK, p38 and JNK kits (TGR BioSciences, Australia) as described previously, [16]. Briefly, HEK-RXFP1 cells were plated into 96-well plates (5 × 10^4 cells/well) and primary cells grown in 24-well plates (1 × 10^5 cells/well) overnight to achieve a confluent monolayer. Prior to stimulation, HEK293 cells were serum-starved with DMEM containing 0.5% (v/v) FBS and primary cells in M199 medium for 4–6 hours. […] Levels of p-ERK1/2, p-p38MAPK and p-JNK1/2/3 were detected as per manufacturer’s instructions (Perkin-Elmer, Australia).

CC(C)Oc1ccccc1C(=O)Nc1ccccc1C(=O)Nc1cccc(S(=O)(=O)C(F)(F)F)c1 [ML290, 2-Isopropoxy-N-(2-(3-(trifluoromethylsulfonyl)phenylcarbamoyl)phenyl) benzamide]
ML290-mediated cGMP accumulation, ML290 alone ([1]; HUASMCs, control of NF449 and mSIRK experiments): 41.9 ± 4.8%
ML290-mediated cGMP accumulation, ML290 alone ([1]; HUASMCs, control of gallein and Wortmannin experiments): 32.1 ± 4.2%
ML290-mediated cGMP accumulation, ML290 alone ([1]; HUVSMCs, control of NF449 and mSIRK experiments): 31.4 ± 4.8%
ML290-mediated cGMP accumulation, ML290 alone ([1]; HUVSMCs, control of gallein and Wortmannin experiments): 30.4 ± 3.2%
Emax ([1]; HUVEC): 39.5 ± 4.8%
Emax [1]: 41 ± 4.5%
T1/2 in heart ([2]; heart): 7.48 h
tissue distribution ([2]; heart): concentrated in the heart
plasma half-life ([2]; mice): 8.56 h
toxicity ([2]; mice): without obvious toxicity
T1/2 in plasma ([2]; plasma): 8.56 h
VEGF expression [3]: increased VEGF expression
action at RXFP2 [4]: little or no action
125I-H2 relaxin specific binding to RXFP1 in presence of ML290 ([5]; 125I-H2 relaxin 100pM, increased from 102.7 ± […]): 135.2 ± 6.5%
effect on the affinity of H2 relaxin ([5]; ML290 1 μM): no significant effect
cGMP accumulation [6]: no effect
cGMP accumulation, maximum ([7]; HCAEC, 30 min): 40.6 ± 5.6 % of the DEA response
cGMP accumulation, maximum ([7]; HUASMC, 30 min): 21.0 ± 4.1 % of the DEA response
Emax ([7]; HUVEC, read-out: cGMP accumulation efficacy (Emax), HUVEC, 30 min): 23.5%
cGMP accumulation, maximum ([7]; HUVEC, 30 min): 23.5 ± 4.4 % of the DEA response
cGMP accumulation, maximum ([7]; HUVSMC, 30 min): 11.0 ± 3.4 % of the DEA response
Emax ([7]; read-out: cGMP accumulation efficacy (Emax), HCAEC, 30 min): 40.6%
Emax ([7]; read-out: cGMP accumulation efficacy (Emax), HCF): 45.3%
Emax ([7]; read-out: cGMP accumulation efficacy (Emax), HUASMC, 30 min): 21%
Emax ([7]; read-out: cGMP accumulation efficacy (Emax), HUVSMC, 30 min): 11%
effect of pretreatment on maximum p-ERK1/2 response to relaxin [8]: significantly increased
